The record followed here is paper PMC9239059, “Structure-Guided Synthesis of FK506 and FK520 Analogs with Increased Selectivity Exhibit In Vivo Therapeutic Efficacy against Cryptococcus” (mBio, 2022).

Molecules are shown by their SMILES. Values after ≈ are worked out from the molar mass of the structure shown.

One test deals with T1, FKBP12 (Aspergillus fumigatus, UniProt Q4WLV6).
T1 construct: gene fpr1A; biotinylated (Avi-tagged) FKBP12; with CnA-CnB-calmodulin
In words: BLI, compound-mediated ternary complex formation, […] compound. The format is binding.

Test [1] relates to T2, Cryptococcus neoformans (H99).
T2 construct: H99
In words: microbe, parasite or virus in culture. Also noted: CLSI M27-A3 broth microdilution in RPMI 1640 at 37 C, growth inhibition of C. neoformans (MIC). The following applies: Cryptococcus neoformans, read-out: MIC (μg/mL) against: / Cryptococcus neoformans (H99)^a. The procedure:
(§1) In vitro antifungal activities of FK506, FK520, and analogs were assessed in RPMI 1640 (Sigma-Aldrich) for all strains tested. MICs/minimum effective concentrations (MECs) for each drug were measured using modified Clinical and Laboratory Standards Institute (CLSI) M38-A2 and M27-A3 standard in vitro antifungal susceptibility protocols. Broth microdilution assays for MIC/MEC assessment were performed as described previously ([33]). All antifungal assays with C. neoformans were performed at 37°C. Antifungal susceptibility testing for C. albicans was performed in the presence of a uniform 1 μg/mL concentration of fluconazole to sensitize the organism to calcineurin inhibition. MICs/minimum effective concentrations (MECs) were determined for each of the novel analogs against the three major human fungal pathogens, A. fumigatus, C. neoformans, and C. albicans. […] Thus, analogs of FK506 and FK520 can tolerate up to 100-fold reduction in antifungal activity and still be considered for in vivo testing. For C. neoformans, MICs were the most uniform and ranged from 0.2 to 2 μg/mL, which is between 4- and 40-fold reduced for antifungal activity. C. albicans MICs ranged from 0.2 to 6.25 μg/mL, which is between 10- and 312.5-fold reduced for activity. Despite being one of the most difficult to treat fungal infections, all six analogs were active against A. fumigatus with MECs ranging from 1 to 2 μg/mL or a 62.5- to 125-fold reduction in activity.

A further test has as its system Aspergillus niger. In words: microbe, parasite or virus in culture. The arrangement: species or system Aspergillus fumigatus and other molds; modified CLSI M38-A2 broth microdilution in RPMI 1640, mold growth inhibition (MIC/MEC). As to conditions: Aspergillus niger; MIC/MEC. The procedure: as §1, with “in activity. Two FK520 analogs, JH-FK-05 and JH-FK-07, maintained high levels of broad-spectrum antifungal activity across the three species, and JH-FK-07 had the lowest MICs for both C. neoformans and C. albicans. To assess the antifungal activity against other human fungal pathogens, we selected JH-FK-05 to test against a panel of pathogenic molds and drug-resistant A. fumigatus strains (Table S3). JH-FK-05 registered MECs as low as 1 μg/mL for some of these highly recalcitrant species, such as Mucor circinelloides, Rhizopus oryzae, and pan azole-resistant A. fumigatus (strain F14946).” for “in activity.”

For another test, the system named is Scedosporium apiospermum. In words: microbe, parasite or virus in culture. Also noted: species or system Aspergillus fumigatus and other molds; modified CLSI M38-A2 broth microdilution in RPMI 1640, mold growth inhibition (MIC/MEC). As to conditions: Scedosporium apiospermum; MIC/MEC. The procedure:
as §1, with “in activity. Two FK520 analogs, JH-FK-05 and JH-FK-07, maintained high levels of broad-spectrum antifungal activity across the three species, and JH-FK-07 had the lowest MICs for both C. neoformans and C. albicans. To assess the antifungal activity against other human fungal pathogens, we selected JH-FK-05 to test against a panel of pathogenic molds and drug-resistant A. fumigatus strains (Table S3). JH-FK-05 registered MECs as low as 1 μg/mL for some of these highly recalcitrant species, such as Mucor circinelloides, Rhizopus oryzae, and pan azole-resistant A. fumigatus (strain F14946).” for “in activity.”

The test system of a further test is Aspergillus terreus. In words: microbe, parasite or virus in culture. As to conditions: Aspergillus terreus; MIC/MEC. The arrangement: species or system Aspergillus fumigatus and other molds; modified CLSI M38-A2 broth microdilution in RPMI 1640, mold growth inhibition (MIC/MEC). The procedure:
as §1, with “in activity. Two FK520 analogs, JH-FK-05 and JH-FK-07, maintained high levels of broad-spectrum antifungal activity across the three species, and JH-FK-07 had the lowest MICs for both C. neoformans and C. albicans. To assess the antifungal activity against other human fungal pathogens, we selected JH-FK-05 to test against a panel of pathogenic molds and drug-resistant A. fumigatus strains (Table S3). JH-FK-05 registered MECs as low as 1 μg/mL for some of these highly recalcitrant species, such as Mucor circinelloides, Rhizopus oryzae, and pan azole-resistant A. fumigatus (strain F14946).” for “in activity.”

The subject of test [2] is T3, Aspergillus fumigatus F14946.
T3 construct: F14946
In words: microbe, parasite or virus in culture. Also noted: species or system Aspergillus fumigatus and other molds; modified CLSI M38-A2 broth microdilution in RPMI 1640, mold growth inhibition (MIC/MEC). The following applies: F14946, MIC/MEC, azole-resistant strain. The procedure:
as §1, with “in activity. Two FK520 analogs, JH-FK-05 and JH-FK-07, maintained high levels of broad-spectrum antifungal activity across the three species, and JH-FK-07 had the lowest MICs for both C. neoformans and C. albicans. To assess the antifungal activity against other human fungal pathogens, we selected JH-FK-05 to test against a panel of pathogenic molds and drug-resistant A. fumigatus strains (Table S3). JH-FK-05 registered MECs as low as 1 μg/mL for some of these highly recalcitrant species, such as Mucor circinelloides, Rhizopus oryzae, and pan azole-resistant A. fumigatus (strain F14946).” for “in activity.”

The test system of test [3] is T4, Aspergillus fumigatus F7075.
T4 construct: F7075
In words: microbe, parasite or virus in culture. The following applies: F7075, MIC/MEC, azole-resistant strain. Also noted: species or system Aspergillus fumigatus and other molds; modified CLSI M38-A2 broth microdilution in RPMI 1640, mold growth inhibition (MIC/MEC). The procedure:
as §1, with “in activity. Two FK520 analogs, JH-FK-05 and JH-FK-07, maintained high levels of broad-spectrum antifungal activity across the three species, and JH-FK-07 had the lowest MICs for both C. neoformans and C. albicans. To assess the antifungal activity against other human fungal pathogens, we selected JH-FK-05 to test against a panel of pathogenic molds and drug-resistant A. fumigatus strains (Table S3). JH-FK-05 registered MECs as low as 1 μg/mL for some of these highly recalcitrant species, such as Mucor circinelloides, Rhizopus oryzae, and pan azole-resistant A. fumigatus (strain F14946).” for “in activity.”

The next test relates to Aspergillus flavus. In words: microbe, parasite or virus in culture. The arrangement: species or system Aspergillus fumigatus and other molds; modified CLSI M38-A2 broth microdilution in RPMI 1640, mold growth inhibition (MIC/MEC). The following applies: Aspergillus flavus; MIC/MEC. The procedure: as §1, with “in activity. Two FK520 analogs, JH-FK-05 and JH-FK-07, maintained high levels of broad-spectrum antifungal activity across the three species, and JH-FK-07 had the lowest MICs for both C. neoformans and C. albicans. To assess the antifungal activity against other human fungal pathogens, we selected JH-FK-05 to test against a panel of pathogenic molds and drug-resistant A. fumigatus strains (Table S3). JH-FK-05 registered MECs as low as 1 μg/mL for some of these highly recalcitrant species, such as Mucor circinelloides, Rhizopus oryzae, and pan azole-resistant A. fumigatus (strain F14946).” for “in activity.”

For a further test, the system named is Paecilomyces variotti. In words: microbe, parasite or virus in culture. The arrangement: species or system Aspergillus fumigatus and other molds; modified CLSI M38-A2 broth microdilution in RPMI 1640, mold growth inhibition (MIC/MEC). As to conditions: Paecilomyces; MIC/MEC. The procedure: as §1, with “in activity. Two FK520 analogs, JH-FK-05 and JH-FK-07, maintained high levels of broad-spectrum antifungal activity across the three species, and JH-FK-07 had the lowest MICs for both C. neoformans and C. albicans. To assess the antifungal activity against other human fungal pathogens, we selected JH-FK-05 to test against a panel of pathogenic molds and drug-resistant A. fumigatus strains (Table S3). JH-FK-05 registered MECs as low as 1 μg/mL for some of these highly recalcitrant species, such as Mucor circinelloides, Rhizopus oryzae, and pan azole-resistant A. fumigatus (strain F14946).” for “in activity.”

T1 sequence (Q4WLV6 whole entry): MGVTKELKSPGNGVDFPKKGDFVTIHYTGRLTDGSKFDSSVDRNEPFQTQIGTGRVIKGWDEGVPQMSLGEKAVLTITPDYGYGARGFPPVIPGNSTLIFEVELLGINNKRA
T1 sequence (Q4WUR1 whole entry partner): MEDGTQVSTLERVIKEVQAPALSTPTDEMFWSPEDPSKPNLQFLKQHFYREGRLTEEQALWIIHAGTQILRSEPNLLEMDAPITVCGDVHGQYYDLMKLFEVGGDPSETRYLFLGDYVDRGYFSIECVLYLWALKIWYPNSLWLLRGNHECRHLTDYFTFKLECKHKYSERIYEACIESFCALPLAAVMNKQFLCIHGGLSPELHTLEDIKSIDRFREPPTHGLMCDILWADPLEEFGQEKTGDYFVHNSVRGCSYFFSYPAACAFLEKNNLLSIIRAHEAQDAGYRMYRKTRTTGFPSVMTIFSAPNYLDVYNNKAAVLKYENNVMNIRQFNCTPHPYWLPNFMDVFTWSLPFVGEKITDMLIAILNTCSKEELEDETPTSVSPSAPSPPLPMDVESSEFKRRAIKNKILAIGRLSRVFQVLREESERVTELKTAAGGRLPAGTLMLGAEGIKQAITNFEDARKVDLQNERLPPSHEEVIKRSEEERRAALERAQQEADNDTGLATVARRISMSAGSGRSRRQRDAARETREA

`CC[C@@H]1/C=C(\C)C[C@H](C)C[C@H](OC)[C@H]2O[C@@](O)(C(=O)C(=O)N3CCCC[C@H]3C(=O)O[C@H](/C(C)=C/[C@@H]3CC[C@@H](O)[C@H](OC)C3)[C@H](C)[C@@H](O)C/C1=N/NC(C)=O)[C@H](C)C[C@@H]2OC` [JH-FK-05]: the “BLI, compound-mediated ternary complex formation, 10 μM compound” value on FKBP12 was “target complexes form in the presence of the analogs with affinities similar to those of the parent compounds”. Besides, the MIC is 1 µg/mL (≈ 1.18 µM) in [1]; below 1 µg/mL against Aspergillus niger; above 8 µg/mL in the test with Scedosporium apiospermum; 1 µg/mL (≈ 1.18 µM) with Aspergillus terreus; 1 µg/mL (≈ 1.18 µM) in [2]; 2 µg/mL (≈ 2.36 µM) in [3]. In addition, the MIC against Aspergillus flavus is 1 µg/mL (≈ 1.18 µM); with Paecilomyces variotti, above 8 µg/mL.
